Experiments:
aorta rings = assay: Vasorelaxant action in vitro (phenylephrine-contracted aorta rings); conditions: Oryctolagus cuniculus; concentration needed to reduce the phenylephrine contraction of rabbit aorta rings by 50%
Protocol: B-1. Vasorelaxant Action In Vitro
Rabbits are stunned by a blow to the neck and exsanguinated. The aorta is removed, freed from adhering tissue and divided into rings of a width of 1.5 mm. The rings are placed individually under an initial tension in 5 ml organ baths with Krebs-Henseleit solution which is at 37° C., is gassed with carbogen and has the following composition (in each case mM): sodium chloride 119; potassium chloride: 4.8; calcium chloride dihydrate: 1; magnesium sulfate heptahydrate: 1.4; potassium dihydrogenphosphate: 1.2; sodium bicarbonate: 25; glucose: 10. The contractile force is determined with Statham UC2 cells, amplified and digitalized using A/D transducers (DAS 1802 HC, Keithley Instruments Munich), and recorded in parallel on linear recorders. To obtain a contraction, phenylephrine is added to the bath cumulatively in increasing concentration. After several control cycles, the substance to be investigated is added in each further run in increasing dosage in each case, and the height of the contraction achieved is compared with the height of the contraction reached in the last preceding run. This is used to calculate the concentration needed to reduce the magnitude of the control value by 50% (IC50 value). The standard administration volume is 5 μl; the DMSO content in the bath solution corresponds to 0.1%.

[1] = target: T1, recombinant guanylate cyclase reporter cell line (Rattus norvegicus, UniProt P19686+P20595); assay: Effect on a recombinant guanylate cyclase reporter cell line; format: cell-based
T1 construct: expressed in transfected cells; host or cells: recombinant reporter cell line
T1 sequence (P20595 1-619): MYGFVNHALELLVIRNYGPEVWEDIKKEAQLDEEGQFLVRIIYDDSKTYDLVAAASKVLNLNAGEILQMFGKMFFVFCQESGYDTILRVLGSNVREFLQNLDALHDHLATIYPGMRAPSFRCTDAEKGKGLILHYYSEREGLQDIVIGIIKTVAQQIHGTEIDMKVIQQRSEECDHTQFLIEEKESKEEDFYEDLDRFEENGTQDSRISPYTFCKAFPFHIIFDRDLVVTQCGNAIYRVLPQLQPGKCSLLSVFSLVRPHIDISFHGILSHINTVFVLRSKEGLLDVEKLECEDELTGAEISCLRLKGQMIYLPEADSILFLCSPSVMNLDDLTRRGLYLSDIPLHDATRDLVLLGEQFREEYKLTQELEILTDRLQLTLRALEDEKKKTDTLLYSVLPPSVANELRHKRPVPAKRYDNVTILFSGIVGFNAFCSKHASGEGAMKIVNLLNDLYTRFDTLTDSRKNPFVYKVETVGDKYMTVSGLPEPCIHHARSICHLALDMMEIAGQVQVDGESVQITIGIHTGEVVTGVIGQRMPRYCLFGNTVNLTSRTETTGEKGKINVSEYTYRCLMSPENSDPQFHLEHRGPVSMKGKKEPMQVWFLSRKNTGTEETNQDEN
T1 sequence (P19686 1-690): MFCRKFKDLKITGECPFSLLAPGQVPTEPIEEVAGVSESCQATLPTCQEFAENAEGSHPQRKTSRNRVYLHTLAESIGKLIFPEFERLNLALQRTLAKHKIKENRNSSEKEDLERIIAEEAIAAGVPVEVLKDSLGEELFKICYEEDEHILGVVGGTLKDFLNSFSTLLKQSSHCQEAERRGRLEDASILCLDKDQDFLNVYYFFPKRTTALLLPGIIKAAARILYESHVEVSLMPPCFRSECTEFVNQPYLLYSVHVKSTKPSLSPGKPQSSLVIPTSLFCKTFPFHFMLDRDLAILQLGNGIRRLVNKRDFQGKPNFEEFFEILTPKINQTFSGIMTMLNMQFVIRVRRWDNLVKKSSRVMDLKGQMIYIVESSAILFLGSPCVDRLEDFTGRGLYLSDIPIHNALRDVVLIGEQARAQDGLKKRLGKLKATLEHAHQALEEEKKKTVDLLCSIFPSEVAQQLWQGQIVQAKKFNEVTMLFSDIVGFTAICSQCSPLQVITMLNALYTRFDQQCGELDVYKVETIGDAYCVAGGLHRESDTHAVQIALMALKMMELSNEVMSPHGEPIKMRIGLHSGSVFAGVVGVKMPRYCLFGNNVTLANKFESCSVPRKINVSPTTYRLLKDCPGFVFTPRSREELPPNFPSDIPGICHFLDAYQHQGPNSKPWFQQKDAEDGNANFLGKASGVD
Protocol: B-2. Effect on a Recombinant Guanylate Cyclase Reporter Cell Line
The cellular activity of the compounds according to the invention is determined using a recombinant guanylate cyclase reporter cell line, as described in F. Wunder et al., Anal. Biochem. 339, 104-112 (2005).

| SMILES | IC50 (aorta rings) [nM] | MEC (minimum effective concentration) [1] [µM] |
| --- | --- | --- |
| COC(=O)N(Cc1ccccc1)c1cnc(-n2nc(Cc3ccccc3F)c3ncccc32)nc1N [Example 2, Methyl {4-amino-2-[3-(2-fluorobenzyl)-1H-pyrazolo[4,3-b]pyridin−1-yl]pyrimidin-5-yl}benzylcarbamate] | 0.705 | 0.3 |
| COC(=O)N(Cc1ccccc1F)c1c(N)nc(-n2nc(Cc3ccccc3F)c3ncccc32)nc1N [Example 3, Methyl {4,6-diamino-2-[3-(2-fluorobenzyl)-1H-pyrazolo[4,3-b]pyridin-1-yl]pyrimidin-5-yl}(2-fluorobenzyl)carbamate] | 0.399 | 0.1 |
| COC(=O)N(Cc1ccc(F)cc1)c1c(N)nc(-n2nc(Cc3ccccc3F)c3ncccc32)nc1N [Example 4, Methyl {4,6-diamino-2-[3-(2-fluorobenzyl)-1H-pyrazolo[4,3-b]pyridin-1-yl]pyrimidin-5-yl}(4-fluorobenzyl)carbamate] | 0.359 | 0.1 |
| COC(=O)N(Cc1ccccc1)c1c(N)nc(-n2nc(Cc3ccccc3F)c3ncccc32)nc1N [Example 5, Methyl benzyl{4,6-diamino-2-[3-(2-fluorobenzyl)-1H-pyrazolo[4,3-b]pyridin-1-yl]pyrimidin-5-yl}carbamate] | 0.185 | 0.1 |
| CC(C)OC(=O)N(Cc1ccccc1)c1c(N)nc(-n2nc(Cc3ccccc3F)c3ncc(F)cc32)nc1N [Example 6, Isopropyl benzyl{4,6-diamino-2-[6-fluoro-3-(2-fluorobenzyl)-1H-pyrazolo[4,3-b]pyridin-1-yl]pyrimidin-5-yl}carbamate] | 0.745 | 0.1 |
| COC(=O)N(Cc1ccccc1)c1c(N)nc(-n2nc(Cc3ccccc3F)c3ncc(F)cc32)nc1N [Example 8, Methyl benzyl{4,6-diamino-2-[6-fluoro-3-(2-fluorobenzyl)-1H-pyrazolo[4,3-b]pyridin-1-yl]pyrimidin-5-yl}carbamate] | 0.154 |  |
